Patent EP1219638A2, “G-protein coupled receptors having homology to the P2Y purinoreceptor 1 (P2Y1)” (Pfizer Limited, priority 2000, dated 2002)

Tested on: PFI-019, SEQ ID NO: 2
Test: FLIPR functional cell-based assay for agonist activation (Fluo3 fluorescence), transiently transfected 293 cells expressing mouse Gα15
Parameters: species or system human
Conditions: PFI-019-transfected 293 cells (HEK 293 expressing mouse Gα15); fluorescence intensity versus time; concentration not given; Figures 3-6
Experimental: Fluorescence Imaging Plate Reader (FLIPR®) technology was employed as a means to detect activation of PFI-019 by agonists in a cell-based assay.
5 x 10^6 Human Embryonic Kidney (HEK) 293 cells expressing the mouse Gα15 gene (from here on called '293 cells'), were transiently transfected with 7.5 µg of PFI-019 (contained within the pcDNA4HIS-max-TOPO (Invitrogen) plasmid) vector, or vector alone, using Lipofectamine Plus® reagent (Gibco BRL) as per the manufacturer's protocol. The plasmid pcDNA4HIS-max-TOPO was used as it contains elements that up-regulate the level of gene transcription over standard pcDNA3.1 vectors. 24 hrs post-transfection, the cells were detached from the flask using Trypsin/EDTA solution (LTI) and seeded into a black sided, Poly-D-lysine-treated, 96-well plate (Becton Dickinson) at 5 x 10^4 cells/well density. The plates were left overnight to allow the cells to adhere to the bottom of the wells. The medium was removed from the cells and replaced with 100 µl warm (37°C) dye loading solution (50 µg Fluo3 (Molecular Probes) in 20 µl DMSO + 20% pluronic acid in DMSO, added to 11 ml Dulbecco's Modified Eagles Medium containing 1x Probenecid (100x Probenecid - 0.71 g Probenecid was dissolved in 5 ml 1M NaOH and 5 ml Dulbeccos' Phosphate Buffered Saline (PBS), per plate; Probenecid (Molecular Probes) inhibits activity of the anion transport protein, thus improving dye loading). The plates were then incubated for 1 hr at 37°C. Plates were subsequently washed with 250 µl of wash buffer per well (5 ml 100x Probenecid stock + 495 ml PBS, pH 7.4) 4 times. The plates were returned to the 37°C/5%CO2 incubator for 30 mins prior to processing within the FLIPR® instrument. The FLIPR® processing involved reading the fluorescence for all samples for 2 minutes; during this time the fluorescence baseline was determined for the first 10 seconds. The desired amount of compound was then automatically transferred to the wells, and the fluorescence was continuously monitored for the remainder of the time. All compounds were diluted in wash buffer
Using methodology as described in detail above, purinoceptor agonist compounds were identified as being able to functionally activate PFI-019.
Figures 3, 4, 5 and 6 show the response of PFI-019-transfected 293 cells to 2-chloroadenosine triphosphate tetrasodium (2-chloro-ATP; Fig. 3), 2-Methylthioadenosine triphosphate tetrasodium (2-methyl-thio-ATP; Fig. 4;); 2-Methylthioadenosine diphosphate trisodium (2-methyl-thio-ADP, Fig. 5) and Uridine triphosphate (Fig. 6). […] All compounds were purchased from Sigma.

Compound | stimulation of PFI-019
Nc1nc(Cl)nc2c1ncn2[C@@H]1O[C@H](COP(=O)([O-])OP(=O)([O-])OP(=O)([O-])[O-])[C@@H](O)[C@H]1O.[Na+].[Na+].[Na+].[Na+] [2-chloro-ATP, 2-chloroadenosine triphosphate tetrasodium] | stimulation
CSc1nc(N)c2ncn([C@@H]3O[C@H](COP(=O)(O)OP(=O)(O)OP(=O)(O)O)[C@@H](O)[C@H]3O)c2n1 [2-methyl-thio-ATP, 2-Methylthioadenosine triphosphate tetrasodium] | stimulation
O=c1ccn([C@@H]2O[C@H](COP(=O)(O)OP(=O)(O)OP(=O)(O)O)[C@@H](O)[C@H]2O)c(=O)[nH]1 [UTP, Uridine triphosphate] | stimulation
CSc1nc(N)c2ncn([C@@H]3O[C@H](COP(=O)(O)OP(=O)(O)O)[C@@H](O)[C@H]3O)c2n1 [2-methyl-thio-ADP, 2-Methylthioadenosine diphosphate trisodium] | stimulation
